# US9725462B2, “Pyridopyrimidine derivatives as protein kinase inhibitors” (Merck Patent GmbH, priority 2012, dated 2017)
# Target: T1, SYK (Homo sapiens, UniProt P43405)
# T1 construct: 2.5 nM SYK, 400 nM Biotin-Aha-Aha-KEDPDYEWPSAKK
# Experiment: SYK Flash Plate Assay (enzyme assay)
# Assay type: biochemical
# Conditions: Syk inhibition
# From the text: The following abbreviations refer respectively to the definitions below: • aq (aqueous), h (hour), g (gram), L (liter), mg (milligram), MHz (Megahertz), min. (minute), mm (millimeter), mmol (millimole), mM (millimolar), m.p. (melting point), eq (equivalent), mL (milliliter), L (microliter), ACN (acetonitrile), AcOH (acetic acid), CDCl3 (deuterated chloroform), CD3OD (deuterated methanol), CH3CN (acetonitrile), c-hex (cyclohexane), DCC (dicyclohexyl carbodiimide), DCM (dichloromethane), DIC (diisopropyl carbodiimide), DIEA (diisopropylethyl-amine), DMF (dimethylformamide), DMSO (dimethylsulfoxide), DMSO-d6 (deuterated dimethylsulfoxide), EDC (1-(3-dimethyl-amino-propyl)-3-ethylcarbodiimide), ESI (Electro-spray ionization), EtOAc (ethyl acetate), Et2O (diethyl ether), EtOH (ethanol), HATU (dimethylamino-([1,2,3]triazolo[4,5-b]pyridin-3-yloxy)-methylene]-dimethyl-ammonium hexafluorophosphate), HPLC (High Performance Liquid Chromatography), i-PrOH (2-propanol), K2CO3 (potassium carbonate), LC (Liquid Chromatography), MeOH (methanol), MgSO4 (magnesium sulfate), MS (mass spectrometry), MTBE (Methyl tert-butyl ether), NaHCO3 (sodium bicarbonate), NaBH4 (sodium borohydride), NMM (N-methyl morpholine), NMR (Nuclear Magnetic Resonance), PyBOP (benzotriazole-1-yl-oxy-tris-pyrrolidino-phosphonium hexafluorophosphate), RT (room temperature), Rt (retention time), SPE (solid phase extraction), TBTU (2-(1-H-benzotriazole-1-yl)-1,1,3,3-tetramethyluromium tetrafluoro borate), TEA (triethylamine), TFA (trifluoroacetic acid), THF (tetrahydrofuran), TLC (Thin Layer Chromatography), UV (Ultraviolet). Description of the In Vitro Assays SYK Flash Plate Assay
# The kinase assay is performed either as 384-well Flashplate assay (for e.g. Topcount measurement) or as 384-well Image-Flashplate assay (for LEADseeker measurement).
# 2.5 nM SYK, 400 nM Biotin-Aha-Aha-KEDPDYEWPSAKK
# and 10 μM ATP (spiked with 0.3 μCi 33P-ATP/well) are incubated in a total volume of 50 μl (60 mM Hepes, 10 mM MgCl2, 1.2 mM Dithiothreitol, 0.02% Brij35, 0.1% BSA, pH 7.5) with or without test compound for 1 hours at 30° C. The reaction is stopped with 25 μl 200 mM EDTA. After 30 Min at 30° C. the liquid is removed and each well washed thrice with 100 μl 0.9% sodium chloride solution. Non-specific reaction is determined in presence of 0.1 μM Staurosporine. Radioactivity is measured with Topcount (when using Flashplates) or with LEADseeker (when using Image-Flashplates) respectively. Results (e.g. IC50-values) are calculated with program tools provided by the IT-department (e.g. Symyx Assay Explorer, Genedata Screener). In Vivo Assays CIA
row,Compound,IC50 [nM]
1,"NC1CCCCC1Nc1ncc2cncc(-c3c[nH]c4c(F)cccc34)c2n1 (stereo not drawn) [Compound A63, cis-N2-[8-(7-Fluoro-1H-indol-3-yl)pyrido[4,3-d]pyrimidin-2-yl]cyclohexane-1,2-diamine]",< 100
2,"Cc1ncc(-c2c[nH]c3cc(C(F)(F)F)ccc23)c2nc(N[C@H]3CCCC[C@H]3N)ncc12 (single isomer, unassigned) [Compound A89]",< 100
3,"Cn1cc(-c2cnc(N)c3cnc(N[C@H]4CCCC[C@H]4N)nc23)cn1 (single isomer, unassigned) [Compound A4, N2-((cis)-2-Amino-cyclohexyl)-8-(1-methyl-1H-pyrazol-4-yl)-pyrido[4,3-d]pyrimidine-2,5-diamine]",1000 to 50000
4,"N[C@@H]1CCCC[C@@H]1Nc1ncc2cncc(-c3c[nH]c4ccc(F)cc34)c2n1 (stereo in doubt) [Compound A46, (1S,2R)-N-[8-(5-Fluoro-1H-indol-3-yl)-pyrido[4,3-d]pyrimidin-2-yl]-cyclohexane-1,2-diamine]",< 100
5,"COC[C@H](N)CNc1ncc2cncc(-c3c[nH]c4cc(C#N)ccc34)c2n1 [Compound A67, 3-[2-((R)-2-Amino-3-methoxy-propylamino)-pyrido[4,3-d]pyrimidin-8-yl]-1H-indole-6-carbonitrile]",1000 to 50000
6,"Nc1ncc(-c2cccc(-n3nccn3)c2)c2nc(N[C@H]3CCCC[C@H]3N)ncc12 (relative stereo) [Compound A3, N2-(cis-2-Amino-cyclohexyl)-8-(3-[1,2,3]triazol-2-yl-phenyl)-pyrido[4,3-d]pyrimidine-2,5-diamine]",100 to 1000
7,"N#Cc1cccc2c(-c3cncc4cnc(N[C@@H]5CCCC[C@@H]5N)nc34)c[nH]c12 [Compound A72, 3-[2-((1R,2S)-2-amino-cyclohexylamino)-pyrido[4,3-d]pyrimidin-8-yl]-1H-indole-7-carbonitrile]",< 100
8,"COc1ccc2[nH]c(-c3cnc(N)c4cnc(N[C@@H]5CCCC[C@@H]5N)nc34)cc2c1 (relative stereo) [Compound A19, N2-(cis-2-Amino-cyclohexyl)-8-(5-methoxy-1H-indol-2-yl)-pyrido[4,3-d]pyrimidine-2,5-diamine]",< 100
9,"N#Cc1cnc(N)c2cnc(N[C@H]3CCCC[C@H]3N)nc12 (relative stereo) [Compound A9, 5-Amino-2-(cis2-amino-cyclohexylamino)-pyrido[4,3-d]pyrimidine-8-carbonitrile]",1000 to 50000
10,"Nc1ncc(-c2ccc(OC(F)(F)F)cc2)c2nc(N[C@@H]3CCCC[C@@H]3N)ncc12 (single isomer, unassigned) [Compound A14, N2-((cis)-2-Amino-cyclohexyl)-8-(4-trifluoromethoxy-phenyl)-pyrido[4,3-d]pyrimidine-2,5-diamine]",100 to 1000
11,"Cc1cccc(-c2cnc(N)c3cnc(N[C@@H]4CCCC[C@@H]4N)nc23)c1 (single isomer, unassigned) [Compound A22, N2-((cis)-2-Amino-cyclohexyl)-8-m-tolyl-pyrido[4,3-d]pyrimidine-2,5-diamine]",< 100
12,"Cc1cccc(-c2cncc3cnc(N[C@H](CC(C)C)C(N)=O)nc23)c1 [Compound A32, (R)-4-Methyl-2-(8-m-tolyl-pyrido[4,3-d]pyrimidin-2-ylamino)-pentanoic acid amide]",1000 to 50000
13,"Nc1ncc(-c2ccccc2)c2nc(N[C@@H]3CCCC[C@@H]3N)ncc12 [Compound A17, N2-((1R,2S)-2-Amino-cyclohexyl)-8-phenyl-pyrido[4,3-d]-pyrimidine-2,5-diamine]",100 to 1000
